O=C1NS(=O)(=O)c2ccccc21
solubility (mole fraction)
Conditions	278.15 K	283.15 K	288.15 K	293.15 K	298.15 K	303.15 K	308.15 K	313.15 K	318.15 K	323.15 K
in acetone	0.0222	0.025	0.0286	0.0326	0.0374	0.0422	0.0484	0.0554	0.0635	0.071
in ethanol	0.00486	0.00578	0.00686	0.00814	0.00964	0.0114	0.0134	0.0158	0.019	0.0231
in ethyl acetate	0.00883	0.0111	0.0139	0.0169	0.0203	0.0241	0.0287	0.0342	0.0401	0.0474
in isobutanol	0.00181	0.00222	0.00279	0.00355	0.00433	0.00538	0.00654	0.00791	0.00953	0.0114
in isopropanol	0.00382	0.0045	0.00532	0.00632	0.00752	0.00895	0.0106	0.0126	0.015	0.0181
in methanol	0.00542	0.00665	0.00806	0.00969	0.0115	0.0135	0.0157	0.0185	0.0217	0.0257
in n-propanol	0.00311	0.00369	0.00439	0.00526	0.00621	0.00756	0.00902	0.0109	0.0129	0.0157

From BigSolDB 2.1
